# Assay results as given in publication PMC8070582, “Therapeutic Efficacy of a Novel Acetylated Tetrapeptide in Animal Models of Age-Related Macular Degeneration” (International Journal of Molecular Sciences, 2021).
# Values joined by “and” are separate entries in the source; they are usually repeats but may differ in a detail not shown here. Equal entries are not always repeated. “Also recorded” adds a separate entry of the source.
# How the values were obtained:
# [1] = system: VEGF-induced angiogenesis; design: method as in PMID 10747021; details: slow-releasing hydrogel implants in corneal stroma; assessed on day 12; cited from earlier work
# [2] = system: choroidal neovascularization (CNV); experiment: Laser-induced CNV mouse model, treatment on the same day as laser irradiation (CNV area); assay type: in vivo; details: day 7, vs vehicle (p < 0.001)
# Experimental: Six-week-old male C57BL/6J mice were purchased from Central Laboratory Animal and then maintained in a specific pathogen free facility in Seoul National University. After deep anesthesia with zolazepam plus tiletamine (3.75 mg/kg, Virbac, Seoul, Korea) and xylazine (7.5 mg/kg, Bayer AG, Leverkusen, Germany), mice were treated with a customized laser indirect ophthalmoscope system (ILOODA) to break Bruch’s membrane (300 μm spot size, 300 mW power, and 100 ms exposure time) as described previously. After the laser irradiation, 10 μL PBS (vehicle), 1 ng of each peptide (RLYE, R(D)LYE and Ac-RLYE), or 145 ng of aflibercept was administered into the vitreous cavity of mice (six per each treatment group) at the same day as laser irradiation. At 7 days after the laser irradiation, the RPE-choroid-scleral complexes were prepared from the enucleated eyes. After immunostaining of the RPE-choroid-scleral complexes with isolectin B4 conjugated with Alexa Fluor-594 (1:100; cat. No. I21413, Invitrogen, Waltham, MA, USA), the CNV area was quantitatively analyzed by the measurement of the area using the ImageJ software. All animal experiments were carried out according to the guidelines of the Ethics Committee for Protection and Use of Experimental Animals of Seoul National University.
# retinal vascular leakage = experiment: Streptozotocin-induced diabetic mouse model, retinal vascular leakage; assay type: in vivo; details: 1 µL of 1.5 mM intravitreal; 24 h after treatment; vs vehicle; RLYE 0.01 < p < 0.05, Ac-RLYE p < 0.01
# Experimental: To prepare a streptozotocin-induced diabetic mouse model, a freshly prepared STZ solution (100 mM) in a citrate buffer (100 mM, pH 4.5) was injected intraperitoneally at 150 mg/kg into the mice, and to prevent hypoglycemic shock, 10% sucrose was sufficiently provided. After two days, blood glucose was measured using an Accu-Chek Performa blood glucose meter (Roche Diagnostics GmbH, Mannheim, Germany), and when non-fasting blood glucose within 1 to 2 weeks was maintained at 300 mg/dl or more, the mice were used as diabetic animal models. […]. Here, the same amount of PBS was injected into the control group. The peptide was injected, and after 24 h, 1 mL (1.25 mg) of FITC-dextran (250 kDa) was injected into the left ventricle of each mouse to allow circulation for approximately 5 min. The mice were euthanized by cervical dislocation, and the eyeballs were extracted and fixed in 4% paraformaldehyde at room temperature for 1 h. The retina was isolated from the fixed eyeball to prepare a retinal flat mount, and vascular leakage was observed under a confocal microscope. Meanwhile, the fluorescence of FITC-dextran leaked from retinal vessels was measured using Fluoview software.
# [3] = system: choroidal neovascularization (CNV); experiment: Therapeutic laser-induced CNV mouse model, treatment 10 days after laser irradiation (CNV area); assay type: in vivo; details: 1 µL of 1.5 mM intravitreal 10 days after laser irradiation; day 4 after treatment
# Experimental: […]. Here, the same amount of saline was injected into the control group. After 4 days (14 days after the laser irradiation), an experiment for analyzing a therapeutic effect was carried out by extracting the eyeballs of the mice. The extracted eyeballs were fixed in 4% paraformaldehyde for 12 h, and embedded in paraffin. Sections with a thickness of 4 μm were prepared from paraffin tissue, and subjected to H&E staining. Afterward, an image of a section with the largest choroidal neovascular membrane area was taken from each subject, and the area of the choroidal neovascular membrane was quantitatively analyzed using ImageJ program (NIH, Bethesda, Rockville, MD, USA). In the saline-injected control group, the average of the choroidal neovascular areas was represented as 100%, and a therapeutic effect of each treatment group was analyzed.
# [4] = cited from earlier work
# [5] = system: choroidal neovascularization (CNV); experiment: Rabbit 4-week laser-induced CNV model (retinal fluorescence intensity); assay type: in vivo; details: 2000 µg/eye intravitreal; only until day 14 after CNV induction
# Text: From the day of laser irradiation to 7, 14, 21, and 28 days after laser induced CNV, the rabbits were instilled with a 1% Mydriacyl eye drop and then anesthetized.
# [6] = system: choroidal neovascularization (CNV); experiment: Rabbit 7-week CNV model, treatment 1 week after laser irradiation; assay type: in vivo
# Experimental: From the day of laser irradiation to 7, 14, 21, 28, 35, 42, and 49 days after laser induced CNV, the rabbits were instilled with a 1% Mydriacyl eye drop and then anesthetized.
# Fundus photography of retinal angiography was performed at the 42nd day from test substance treatment. Additionally, the eyes were then removed and fixed in 10% formalin solution for 24 h. The cornea, lens, and retina were removed. After washing with PBS, the […] and choroid complex (RPE-choroid complex) just remained from fixed eyes. The CNV area was stained with rhodamine conjugated isolectin B4 (IB4, Sigma-Aldrich, St. Louis, MO, USA) for 24 h at 4 °C. After staining, they were washed in PBS, flat-mounted on a glass slide, and then observed with a fluorescence microscope equipped with a digital camera and photographed. The CNV area was measured by ImageJ software.
# [7] = cited from earlier work; remark: listed apart in the source
# [8] = system: corneal neovascularization; design: method as in PMID 24240485; details: administered on day 7 after suture placement; 1 week post-treatment; cited from earlier work
substance,measurement,setting,value
ATWLPPR,VEGF-induced angiogenesis,[1],abolish VEGF-induced angiogenesis
Arg-Leu-Tyr-Glu (RLYE; printed: Arg-Leu-Tyr-Glu),CNV area,[2]; 1 ng/1 µL/eye intravitreal on day of laser irradiation,significantly reduced
same,retinal vascular leakage (FITC-dextran),retinal vascular leakage,effectively inhibited
same,degree of CNV area reduction compared with vehicle,[3],55%
same,occurrence of CNV (CNV area),[3],significantly reduced the CNV area; also recorded: effectively reduced
same,serum half-life,[4],1.2 h
aflibercept: fusion protein of ligand-binding elements of VEGFR-1 and VEGFR-2 fused to the Fc portion of IgG,CNV area,[2]; 145 ng/1 µL/eye intravitreal on day of laser irradiation,significantly reduced
same,retinal fluorescence intensity vs vehicle group,[5],significantly reduced
same,retinal fluorescence intensity vs vehicle control,"[6]; 2000 µg/eye intravitreal on day 7 after laser, days 7, 14, 21, 28, 35 and 42 after administration",significantly lower
same,"CNV lesions (CNV area) compared with vehicle control, reduced to","[6]; aflibercept 2000 µg/eye, day 42 after drug administration",38.9% and 36%
same,t1/2 (ocular),[7],94.1 h
same,volume of distribution,[7],1.4 mL
bevacizumab: anti-VEGF antibody,degree of reduction of the CNV area compared with vehicle,[8],46%–60%
"ranibizumab: an anti-VEGF therapy (anti-VEGF antibody), positive control",t1/2 (ocular),[7],52.4 h
same,volume of distribution,[7],2.7 mL
same,degree of reduction of the CNV area compared with vehicle,[8],53%–60%
